Source: paper PMC4937837 (Journal of Medicinal Chemistry, 2015)

Conditions: mouse liver microsomes, NADPH, 1 μM compound, 1 h incubation

in vitro rate constant (k): −0.017
Compound: O=C(NCCCCN1CCN(c2cccc3ccccc23)CC1)c1cnc2ccccc2c1 [Compound 32, N-(4-(4-(Naphthalen-1-yl)piperazin-1-yl)butyl)quinoline-3-carboxamide]
